Measured values: article PMC12524618, “Conformational Dynamics of the Active Site Loop in Dihydroorotase Highlighting the Limitations of Loop-In Structures for Inhibitor Docking” (International Journal of Molecular Sciences, 2025)

Experiments:
[1] = molecular target: T1, Saccharomyces cerevisiae dihydroorotase (DHOase) (Saccharomyces cerevisiae, UniProt P20051); assay: spectrophotometric assay of dihydroorotate hydrolysis at […] nm with purified recombinant enzyme; format: biochemical
T1 construct: gene URA4
T1 sequence (P20051 1-364): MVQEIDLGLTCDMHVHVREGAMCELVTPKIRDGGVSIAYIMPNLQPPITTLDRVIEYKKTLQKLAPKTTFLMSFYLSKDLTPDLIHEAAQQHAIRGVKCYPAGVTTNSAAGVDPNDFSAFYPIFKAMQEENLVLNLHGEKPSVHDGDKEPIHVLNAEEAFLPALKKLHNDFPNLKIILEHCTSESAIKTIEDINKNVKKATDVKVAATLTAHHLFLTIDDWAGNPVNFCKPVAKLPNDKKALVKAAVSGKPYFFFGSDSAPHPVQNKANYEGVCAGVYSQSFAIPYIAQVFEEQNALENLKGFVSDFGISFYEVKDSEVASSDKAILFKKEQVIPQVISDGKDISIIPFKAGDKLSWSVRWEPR

[2] = molecular target: T1, Saccharomyces cerevisiae dihydroorotase (DHOase); assay: spectrophotometric assay of dihydroorotate hydrolysis at […] nm with purified recombinant enzyme; […] inhibition at […]; format: biochemical

Compound | IC50 [1] [µM] | IC50 [2] [µM]
O=c1c(O)c(-c2cc(O)c(O)c(O)c2)oc2cc(O)cc(O)c12 [myricetin] | 12.5 ± 0.47 | 
O=C(O)c1[nH]c(=O)[nH]c(=O)c1F [5-FOA] |  | > 600
